Assay results taken from publication PMC7932521, “2-aminobenzimidazoles for leishmaniasis: From initial hit discovery to in vivo profiling” (PLoS Neglected Tropical Diseases, 2021).
Read-outs that look alike come from different tables or passages of the source.

Tests used:
[1] = MRC-5 cytotoxicity; format: cell-based; conditions: human, MRC-5 cells; S1 Data
[2] = tested on: PMM (Primary Mouse Macrophages); experiment: Cytotoxicity on primary peritoneal mouse macrophages; format: cell-based; conditions: Mus musculus, Macrophage, read-out: PMM IC50
Protocol: (§1) Leishmania infantum MHOM/MA(BE)/67/ITMAP263 amastigotes were collected from the spleen of infected donor Golden hamsters. Primary peritoneal mouse macrophages (PMM) were used as host cells for in vitro assays. PMM were collected from Swiss mice after 2 days of peritoneal stimulation with a 2% suspension of potato starch and maintained in RPMI-1640 medium supplemented with 200 mM L-glutamine, antibiotics and 5% FCS at 37°C and 5% CO2. Promastigotes of L. infantum chagasi (luciferase) (MHOM/BR/2005/NLC) obtained as described in Reimão et al.,[27] were grown in M199 medium supplemented with 10% FCS, 0.25% hemin, 32 μg/ml hygromycin and 2% sterile human urine at 25°C and 5% CO2.
(§2) Stock solutions of the compounds at 20 mM were prepared in 100% DMSO. Next, the compounds were serially pre-diluted in DMSO followed by a further dilution in demineralized water to assure a final in-test DMSO concentration below 1%. The compounds were tested at 4-fold dilutions starting at 64 μM.

[3] = Mouse liver microsomal stability; format: in vitro ADME; conditions: for microsomal CLint at 0.5 μM: CD1, mouse, liver microsomes, pH 7.4, S1 Data, read-out: MLM CLint
Protocol: The metabolic stability of the compounds was evaluated in human (pool of 200 donors, XenoTech) and mouse liver microsomes (CD1 mouse, GIBCO). Test compounds were prepared at a concentration of 0.5 μM and incubated with 0.25 mg/mL liver microsomes at pH 7.4 and 37°C. The reaction was started by addition of NADPH at […]. Samples were taken at 0, 5, 10, 15, 20 and 30 minutes. The reaction was stopped by the addition of acetonitrile:methanol (1:1) containing an internal standard (tolbutamide at 50 nM). Compounds were quantified by liquid chromatography triple quadrupole mass spectrometry (LC-MS/MS). Peak area ratios (analyte/internal standard) were converted to % remaining using the area ratio at time 0 as 100%. Half-life (t1/2 = ln(2)/k) in minutes and intrinsic clearance (Clint = k x 1000/(0.25)) in μL/min/mg were calculated using a non-linear regression from % remaining versus incubation time. From this plot, the slope (k) was determined. The analysis conditions were: analytical column (Gemini C18, […], Phenomenex), electrospray ionization source (ESI) in positive and negative mode, mobile phase A (water + 0.1% formic acid) and B (acetonitrile + 0.1% formic acid), flow rate of 0.7 mL/min.

[4] = tested on: Leishmania infantum MHOM/MA(BE)/67/ITMAP263 amastigotes; experiment: L. infantum intracellular amastigote assay in PMM; format: cell-based; conditions: for SI: selectivity index (CC50 / IC50): CC50 / L. infantum IC50; for IC50: Leishmania infantum, read-out: L. infantum IC50; for potency compared to initial hit 1: L. infantum IC50
Protocol: as §1, §2
For the antileishmania in vitro assays, 3×10^4 PMM/well were seeded in 96-well plates. After 24h, 5×10^5 amastigotes/well were added and incubated for 2h at 37°C. Next, the compounds in 4-fold serial dilutions were added and the plates were further incubated for 5 days (37°C, 5% CO2). Parasite burdens were assessed using an inverted microscope after Giemsa staining. The results were expressed as percent reduction in parasite burdens compared to negative control wells (100% growth) and IC50 values were determined. Values represent the geometric mean of at least two independent experiments. Miltefosine was used as the positive control in all plates.

[5] = Experimental distribution coefficient (eLogD); format: physicochemical; conditions: pH 7.4
Protocol: To determine the lipophilicity of the compounds, a methodology based on the retention time of molecules in reverse stationary phase (Ascentis RP-Amide HPLC column) was used. The chromatogram was obtained using LC-MS/MS. Test compounds were prepared at 1.0 μg/mL by adding the stock solution at (1:1) mobile phases A:B + internal standard at 200nM (A: 5% methanol in 10mM ammonium acetate pH 7.4, B: 100% methanol), DMSO concentration must be lower than 2%. […] The retention time (in minutes) of each of the eight standards was plotted against their LogD values. The resulting equation for the calibration curve (y = mx + b) was used to calculate the LogD values for the test compounds.

[6] = Parallel artificial membrane permeability assay (PAMPA); format: in vitro ADME
Protocol: To determine the passive permeability of the compounds, a 96-well plate containing membranes pre-coated with lipids (Corning Gentest # 353015) was used. The solutions of the compounds were prepared by diluting the stock solutions (10mM) in phosphate buffered saline (PBS) pH 6.5 at a final concentration of 10μM. The solutions diluted in PBS pH 6.5 were then added to the donor portion of the plate (300 μl/well), while PBS pH 7.4 (200 μl/well) was added to the acceptor portion. The two portions of the plate were then coupled, and the system was incubated for 5 h at 37°C. At the end of the incubation, samples were collected from the donor and acceptor plates, and then added to plates containing quench solution (10% water and 90% methanol: acetonitrile (50:50) + 50 nM tolbutamide). The final concentrations of compounds in the donor, acceptor, and initial solution (T0) wells were analyzed using LC-MS/MS. The results were used to calculate an effective permeability (Pe) value. The PAMPA assay was performed in triplicate (n = 3).

[7] = 120 h, intracellular amastigotes in PMM, 5 days
[8] = reverse stationary phase HPLC column (Ascentis RP-Amide), S1 Data
[9] = reverse-phase HPLC retention (Ascentis RP-Amide column), experimental
[10] = PAMPA, S1 Data, read-out: PAMPA Pe

| SMILES | CC50 [1] [µM] | IC50 [2] [µM] | MLM CLint ([3]; S1 Data) [µL/min/mg] | SI: selectivity index (CC50 / IC50) [4] | IC50 [4, 7] [µM] | IC50 ([4]; S1 Data) [µM] | chromatographic logD [5, 8] | microsomal CLint at 0.5 μM [3] [µL/min/mg] | potency compared to initial hit 1 [4] [fold] | eLogD ([5]; experimental) | MLM CLint ([3]; mouse liver microsome intrinsic clearance) [µL/min/mg] | Papp at 5 h, 10 μM ([6]; passive permeability, read-out: PAMPA) [×10⁻⁶ cm/s] | chromatographic logD [5, 9] | Papp at 5 h, 10 μM [6, 10] [×10⁻⁶ cm/s] |
| --- | --- | --- | --- | --- | --- | --- | --- | --- | --- | --- | --- | --- | --- | --- |
| CCCn1c(NC(=O)Cc2ccc(Cl)cc2)nc2ccc(F)cc21 [Compound 3, CCCn1c(cc(F)cc2)c2nc1NC(=O)Cc3ccc(Cl)cc3] | 56.7 | 12.7 | 1590 | 4 | 2.9 | 2.94 | 4.31 | – | – | – | – | – | – | – |
| CCN(CC)CCCn1c(NC(=O)Cc2ccc(F)cc2)nc2ccc(C#N)cc21 [Compound 26, CCN(CC)CCCn1c(cc(C#N)cc2)c2nc1NC(Cc3ccc(F)cc3)=O] | > 64 | > 64 | – | – | – | > 64 | – | 154 | – | – | – | – | – | – |
| CCCn1c(NC(=O)Cc2ccc(Cl)cc2)nc2cc(C(F)(F)F)ccc21 [Compound 7, CCCn1c(ccc(C(F)(F)F)c2)c2nc1NC(Cc3ccc(Cl)cc3)=O] | 11.2 | 16 | 283 | 8 | 2 | 2.01 | 4.69 | – | 6 | 4.7 | – | – | – | – |
| CCCn1c(NC(=O)Cc2ccc(Cl)cc2)nc2ccccc21 [Compound 1] | – | > 64 | – | – | 12 | – | – | – | – | – | 3094 | 6.7 | 4.6 | – |
| N#Cc1ccc2nc(NC(=O)c3cnc(C(F)(F)F)nc3)n(CC(F)(F)F)c2c1 [Compound 46, O=C(c1cnc(C(F)(F)F)nc1)Nc2nc(ccc(C#N)c3)c3n2CC(F)(F)F] | 1.78 | 4 | – | 4 | 1 | – | – | – | 10 to 20 | – | – | – | – | 1.46 |
| Cn1nccc1C(=O)Nc1nc2ccc(C#N)cc2n1C1CC1 [Compound 31, O=C(c1ccnn1C)Nc2nc(ccc(C#N)c3)c3n2C4CC4] | > 64 | > 64 | – | 2 | 30 | 30 | – | 162 | – | – | – | – | – | 14.4 |
| N#Cc1ccc2nc(NC(=O)c3ccnn3C3CC3)n(CC(F)(F)F)c2c1 [Compound 37, O=C(c1ccnn1C2CC2)Nc3nc(ccc(C#N)c4)c4n3CC(F)(F)F] | 3 | 45.2 | – | 5 | 10 | 10.1 | – | – | – | – | – | – | – | – |
| CCCn1c(NC(=O)Cc2ccc(Cl)cc2)nc2cc(F)ccc21 [Compound 4, CCCn1c(ccc(F)c2)c2nc1NC(=O)Cc3ccc(Cl)cc3] | > 64 | 20.2 | 1510 | 5 | 4.3 | 4.35 | 4.26 | – | – | – | – | – | – | – |
| CCN(CC)CCCn1c(NC(=O)c2ccnn2C)nc2ccc(C#N)cc21 [Compound 52, CCN(CC)CCCn1c(cc(C#N)cc2)c2nc1NC(c3ccnn3C)=O] | > 64 | > 64 | – | 1 | 57 | 57 | – | 59 | – | – | – | – | – | – |
| Cn1c(NC(=O)Cc2ccc(Cl)cc2)nc2ccccc21 [Compound 17, O=C(Nc1n(C)c(cccc2)c2n1)Cc3ccc(Cl)cc3] | > 64 | 32 | – | – | 33 | 32.5 | – | – | – | – | – | – | – | – |
| Cn1nncc1C(=O)Nc1nc2ccc(C#N)cc2n1CC(F)(F)F [Compound 33, O=C(c1cnnn1C)Nc2nc(ccc(C#N)c3)c3n2CC(F)(F)F] | > 64 | 32 | – | 2 | 15 | 14.8 | 4 | – | – | 4.0 | – | – | – | – |
| O=C(Cc1ccc(F)cc1)Nc1nc2cc(F)ccc2n1C1CCNCC1 [Compound 25, O=C(Nc1n(C2CCNCC2)c(c3n1)ccc(F)c3)Cc4ccc(F)cc4] | > 64 | > 64 | – | – | 34 | 34.4 | 3.08 | – | – | – | – | – | – | 0.19 |
| O=C(Cc1ccc(Cl)cc1)Nc1nc2ccc(F)cc2n1CC(F)(F)F [Compound 23, Fc1cc2c(nc(NC(=O)Cc3ccc(Cl)cc3)n2CC(F)(F)F)cc1] | > 64 | 45.2 | – | – | 4.8 | 4.82 | 4.46 | – | – | – | – | – | – | 7.07 |
| Cn1cc(C(=O)Nc2nc3ccc(C#N)cc3n2CC(F)(F)F)cn1 [Compound 36, O=C(c1cn(C)nc1)Nc2nc(ccc(C#N)c3)c3n2CC(F)(F)F] | 56.1 | 16 | – | 2 | 8.7 | 8.74 | – | – | – | – | – | – | – | – |
| Cc1ccc(C(=O)Nc2nc3ccc(C#N)cc3n2CC(F)(F)F)cn1 [Compound 42, O=C(c1ccc(C)nc1)Nc2nc(ccc(C#N)c3)c3n2CC(F)(F)F] | > 64 | 8 | – | 2 | 4.7 | 4.65 | – | – | – | – | – | – | – | 13.2 |
| CC(C)(C)Cn1c(NC(=O)Cc2ccc(C(F)(F)F)cc2)nc2ccccc21 [Compound 20, CC(Cn1c(cccc2)c2nc1NC(Cc3ccc(C(F)(F)F)cc3)=O)(C)C] | > 32 | 22.6 | – | – | 8.2 | 8.18 | – | – | – | – | – | – | 4.9 | – |
